Entries after “also recorded” stand apart in the source; their conditions may differ.
How the values were obtained:
[1] = test system: lysyl-tRNA synthetase (KRS); experiment: KRS expression after shRNA transfection (Western blotting); type: cell-based, homo sapiens; conditions: HCT116 cells transfected with KRS shRNA plasmid DNA
Text: Particularly, the cell line wherein KRS expression was suppressed was constructed by transfecting cells with lysyl-tRNA synthetase MISSION® shRNA plasmid DNA (Sigma, USA). At this time, the said KRS was homo sapiens lysyl-tRNA synthetase (transcript variant 1, mRNA sequence: NM_001130089.1). This KRS includes […] long exon 1˜15. Among the purchased KRS shRNA plasmid DNAs, shKRS-0 (SEQ. ID. NO: 1) targets 1581˜1604 bp (exon 12) of KRS, shRKS-1 (SEQ. ID. NO: 2) targets 437˜459 bp (exon 3˜4), shKRS-2 (SEQ. ID. NO: 3) targets 911˜933 bp (exon 7), and shKRS-5 (SEQ. ID. NO: 4) targets 1071˜1092 bp (exon 8). TRC1.5-pLK0.1-puro was used as the expression vector. Selection was performed by using puromycin to establish stable cell lines.
Western blotting was performed to investigate whether or not the KRS expression was inhibited in the spheroidically aggregated cells of the KRS knock-out cell lines constructed by the method of Example <2-1>.

[2] = test system: HCT116 spheroidically aggregated cells; experiment: Dissemination of cells from spheroidically aggregated cells in three-dimensional collagen gel (time-lapse microscope); type: cell-based, human
Description: Particularly, 2.5 mg/Ml of collagen containing cells was loaded in the magnetic 4-well chamber (Live Cell Instrument, Korea) for the culture system of time-lapse microscope, and the collagen was hardened in a 37° C. incubator for 30 minutes. When the collagen was fully solidified, PRMI-1640 supplemented with 10% FBS was added thereto. The magnetic chamber containing three-dimensional collagen gel and its corresponding adaptor were placed on the time-lapse microscope, followed by setting the multi-position. […] 5% CO2 incubator. Culture medium was added thereto every 6 hours in order for the collagen not to be dried. At this time, it is important to maintain the focus not to be changed. […]
As confirmed in the result of Example 14, when the HCT116 parental cells were treated with TGFβ1, the dissemination of cells from the spheroidically aggregated cells and migration thereof were observed. When the KRS knock-out cell line was treated with TGFβ1, the dissemination of cells was not observed. […] When the extracellular signal-regulated kinase (ERKs) inhibitor U0126 was treated to the HCT116 parental cells, it was presumed to be negative effect on the dissemination and migration of cells. To verify above, 50 μM of U0126, the ERKs inhibitor, was treated to the cell line, followed by observation of cell dissemination and migration by real-time live imaging of the spheroidically aggregated cells.

HCT116 cells = experiment: EMT marker protein expression in two-dimensional culture treated with cytokines (Western blotting); type: cell-based, human; conditions: 10% FBS
Description: Particularly, the cell line cultured in a two-dimensional environment with 10% serum was washed with PBS twice, followed by reaction at 4° C. for 15 minutes in 200 μl of lysis buffer [50 mM Tris-HCl, pH 7.4, 1% NP-40, 0.25% sodium deoxycholate, 150 mM NaCl, 1 mM EDTA] supplemented with SDS, Na3O4V, and protease inhibitor cocktails (GenDepot, USA). The cells were collected and centrifuged at 4° C. at 13000×g for 30 minutes. The supernatant was transferred in a new microcentrifuge tube, followed by protein quantification using BCA reagent (Thermo Scientifics, USA). To the quantified sample was added 4× sample buffer [100% glycerol 4 ml, Tris-HCl, pH 6.8, 2.4 ml, SDS 0.8 g, bromophenol blue 4 mg, β-mercaptoethanol 0.4 ml, H2O 3.1 ml (total 10 Ml)], which was boiled at 100° C. for 5 minutes. The prepared sample was treated with the primary antibodies of ZO-1 (Zymed, USA), β-catenin (Santa Cruz, USA), and E-cadherin by the same manner as described in Example <1-2>.
To observe the surrounding microenvironmental factors in a two-dimensional culture environment over the time, the culture fluid supplemented with 10% FBS was additionally treated with such cytokines as TNFα and TGFβ, followed by investigation of the expression of the epithelial marker protein that can be an index for cell-cell adhesion by the same manner as described in Example <3-1>.

[3] = TGFβ1, normal HCT116 and KRS over-expressing cell line

## shKRS-0: KRS MISSION shRNA plasmid DNA (Sigma), SEQ. ID. NO: 1, targets 1581˜1604 bp (exon 12) of KRS (DNA CCGGCCTGGAAGTGACTTGCATCAACTCGAGTTGATGCAAGTCACTTCCAGGTTTTTG)
[1]
  KRS expression: KRS inhibiting effect

## shKRS-5: KRS MISSION shRNA plasmid DNA (Sigma), SEQ. ID. NO: 4, targets 1071˜1092 bp (exon 8) of KRS (DNA CCGGGCCTTTCATCACTTATCACAACTCGAGTTGTGATAAGTGATGAAAGGCTTTTTG)
[1]
  KRS expression: KRS inhibiting effect

## TGFβ1: the most representative multifunctional and EMT inducing cytokine
[2]; TGFβ1, 36 hours, HCT116 parental cells and KRS over-expressing cell lines
  formation of invasive protrusion: not observed
[2]; TGFβ1, HCT116 parental cells and KRS over-expressing cell lines
  dissemination of cells from spheroid cells: observed
[2]; TGFβ1, KRS knock-out cell line
  cell migration: significantly decreased
  dissemination of cells: not and not observed
HCT116 cells; KRS knock-out cell line
  epithelial marker protein like occludin (ZO-1 and occludin) expression: increase; also recorded: up-regulated
  fibronectin expression: reduced; also recorded: down-regulated; also recorded: decrease
HCT116 cells; [3]
  fibronectin expression: up-regulated
  occludin or ZO-1 expression: down-regulated

## shKRS-2: KRS MISSION shRNA plasmid DNA (Sigma), SEQ. ID. NO: 3, targets 911˜933 bp (exon 7) of KRS (DNA CCGGCCAGAGATACTTGGACTTGATCTCGAGATCAAGTCCAAGTATCTCTGGTTTTTG)
[1]
  KRS expression: KRS inhibiting effect

## TNFα
[2]; TNFα, 36 hours, HCT116 parental cells, KRS over-expressing cell line and KRS knock-out cell line
  formation of invasive protrusion: increased
[2]; TNFα, 36 hours, parental, KRS over-expressing and KRS knock-out cell lines (regardless of KRS expression)
  dissemination of cells from the cell mass and cell migration: observed
HCT116 cells; KRS knock-out cell line
  epithelial marker protein like occludin (ZO-1 and occludin) expression: increased
  fibronectin expression: reduced
HCT116 cells; TNFα, normal HCT116 and KRS over-expressing cell line
  expression of the epithelial marker protein: not changed
